The values below are quoted from earlier work in PubChem BioAssay AID1259409 (Chemical Carcinogenesis Research Information System (CCRIS), 2018).

The subject of the data set is rodent chemically induced tumor inhibition, incidence and multiplicity. In words: CCRIS tumor inhibitor studies.

Regarding `O=C(O)[C@H](O)[C@@H](O)[C@H](O)[C@H](O)CO`, the “tumour outcome (control, treated, inhibition, significance)” value is, setting by setting: (Carcinogen: 1,2-DIMETHYLHYDRAZINE DIHYDROCHLORIDE, 306-37-6, Dose [Inhibitor]: 0, 1% IN DIET FOR 8 MO BEGINNING 2 WK POST CARCINOGEN (STUDY DURATION: 8 MO, 2 WK), Route [Inhibitor]: ORAL, Species: RAT, Strain/Sex: F344/MALE, Target Tissue: Type of Lesion: COLON: TUMOR, Dose [Carcinogen]: 200 MG/KG IN 0.9% NACL ONCE) 15/27 (56%), 17/28 (61%), -9%, not significant; (Carcinogen: 1,2-DIMETHYLHYDRAZINE DIHYDROCHLORIDE, 306-37-6, Dose [Inhibitor]: 0, 2% IN DIET FOR 8 MO BEGINNING 2 WK POST CARCINOGEN (STUDY DURATION: 8 MO, 2 WK), Route [Inhibitor]: ORAL, Species: RAT, Strain/Sex: F344/MALE, Target Tissue: Type of Lesion: COLON: TUMOR, Dose [Carcinogen]: 200 MG/KG IN 0.9% NACL ONCE) 15/27 (56%), 7/17 (41%), 27%, not significant.
For `CC/C=C\C/C=C\C/C=C\C/C=C\C/C=C\CCCC(=O)O`, the “tumour outcome (control, treated, inhibition, significance)” value by setting is: (Carcinogen: 7,12-DIMETHYLBENZ[A]ANTHRACENE, 57-97-6, Dose [Inhibitor]: 0, 0.5 ML 2/WK FOR 19 WK BEGINNING 1 WK POST CARCINOGEN DOSE ADMINISTERED TO RATS FED HIGH-FAT (20% CORN OIL) DIETS (STU, Route [Inhibitor]: GAVAGE, Species: RAT, Strain/Sex: SPRAGUE-DAWLEY/FEMALE, Target Tissue: Type of Lesion: MAMMARY GLAND: ADENOCARCINOMA, Dose [Carcinogen]: 5 MG ONCE AT 50 D OF AGE, Promoter: NONE USED) 24/30 (80%), 10/24 (42%), 48%, p<0.05; (Carcinogen: AZOXYMETHANE, 25843-45-2, Dose [Inhibitor]: 4.7% (VOL/VOL) IN 5% FAT DIET CONTAINING 0.3% LINOLEIC ACID FOR DURATION OF STUDY (STUDY DURATION: 26 WK), Route [Inhibitor]: ORAL, Species: RAT, Strain/Sex: DONRYU/MALE, Target Tissue: Type of Lesion: COLON: ADENOCARCINOMA, Dose [Carcinogen]: 7.4 MG/KG BW IN 0.9% SALINE SOLUTION 1/WK FOR FIRST 11 WK, Promoter: NONE USED) 20/29 (69%), 10/30 (33%), 52%, p<0.01.
Take `S=C=NC(Cc1ccccc1)c1ccccc1` (centres undefined): the “tumour outcome (control, treated, inhibition, significance)” value (Carcinogen: 4-(METHYLNITROSAMINO)-1-(3-PYRIDYL)-1-BUTANONE, 64091-91-4, Dose [Inhibitor]: 0, 1 UMOL ONCE 2 HR PRIOR TO CARCINOGEN DOSE (STUDY DURATION: 16 WK), Route [Inhibitor]: GAVAGE, Species: MOUSE, Strain/Sex: STRAIN-A/FEMALE, Target Tissue: Type of Lesion: LUNG: ADENOMA, Dose [Carcinogen]: 10 UMOL IN 0.1 ML SALINE ONCE, Promoter: NONE USED) is 100%, 60%, 40%, p<0.05 and the “tumour outcome (control, treated, inhibition, significance)” value (Carcinogen: 4-(METHYLNITROSAMINO)-1-(3-PYRIDYL)-1-BUTANONE, 64091-91-4, Dose [Inhibitor]: 0, 5 UMOL ONCE 2 HR PRIOR TO CARCINOGEN DOSE (STUDY DURATION: 16 WK), Route [Inhibitor]: GAVAGE, Species: MOUSE, Strain/Sex: STRAIN-A/FEMALE, Target Tissue: Type of Lesion: LUNG: ADENOMA, Dose [Carcinogen]: 10 UMOL IN 0.1 ML SALINE ONCE, Promoter: NONE USED) is reported as 100%, 45%, 55%, p<0.05.
With `C[C@]12CCC(=O)C(O)=C1CC[C@@H]1[C@@H]2CC[C@]2(C)C(=O)CC[C@@H]12`, the “tumour outcome (control, treated, inhibition, significance)” value is, setting by setting: (Carcinogen: METHYLNITROSOUREA, 684-93-5, Dose [Inhibitor]: 0, 6 MG/D 7 D/WK FOR DURATION OF STUDY BEGINNING 1 WK PRIOR TO CARCINOGEN DOSE (STUDY DURATION: 107 D), Route [Inhibitor]: GAVAGE, Species: RAT, Strain/Sex: SPRAGUE-DAWLEY/FEMALE, Target Tissue: Type of Lesion: MAMMARY GLAND: TUMOR, Dose [Carcinogen]: 50 MG/KG BW ONCE, Promoter: NONE USED) 100%, 95%, 5%, not significant; (Carcinogen: METHYLNITROSOUREA, 684-93-5, Dose [Inhibitor]: 0, 15 MG/D 7 D/WK FOR DURATION OF STUDY BEGINNING 1 WK PRIOR TO CARCINOGEN DOSE (STUDY DURATION: 107 D), Route [Inhibitor]: GAVAGE, Species: RAT, Strain/Sex: SPRAGUE-DAWLEY/FEMALE, Target Tissue: Type of Lesion: MAMMARY GLAND: TUMOR, Dose [Carcinogen]: 50 MG/KG BW ONCE, Promoter: NONE USED) 100%, 100%, 0%, not significant.
For the molecule `CC(=O)Oc1c(C)c(C)c2c(c1C)CC[C@@](C)(CCC[C@H](C)CCC[C@H](C)CCCC(C)C)O2`, the “tumour outcome (control, treated, inhibition, significance)” value is, setting by setting: (Carcinogen: 7,12-DIMETHYLBENZ[A]ANTHRACENE, 57-97-6, Dose [Inhibitor]: 0, 0.2% IN DIET BEGINNING 1 WK PRIOR TO CARCINOGEN DOSE AND CONTINUING FOR 12 WK (STUDY DURATION: 13 WK), Route [Inhibitor]: ORAL, Species: RAT, Strain/Sex: SPRAGUE-DAWLEY/FEMALE, Target Tissue: Type of Lesion: MAMMARY GLAND: TUMORS, Dose [Carcinogen]: 10 MG IN 1 ML CORN OIL ONCE, Promoter: NONE USED) 100%, 80%, 20%, p<0.05; (Carcinogen: 7,12-DIMETHYLBENZ[A]ANTHRACENE, 57-97-6, Dose [Inhibitor]: 0, 10 UMOL 1/WK 5 MIN PRIOR TO EACH PROMOTER DOSE BEGINNING 2 WK POST CARCINOGEN DOSE AND CONTINUING FOR 29 WK (STUDY DU, Route [Inhibitor]: DERMAL, Species: MOUSE, Strain/Sex: SENCAR/FEMALE, Target Tissue: Type of Lesion: SKIN: PAPILLOMA, Dose [Carcinogen]: 25 NMOL ONCE, Promoter: CHRYSAROBIN, 491-58-7) 100%, 93%, 7%, not significant; (Carcinogen: 7,12-DIMETHYLBENZ[A]ANTHRACENE, 57-97-6, Dose [Inhibitor]: 0, 40 UMOL 1/WK 5 MIN PRIOR TO EACH PROMOTER DOSE BEGINNING 2 WK PRIOR TO CARCINOGEN DOSE AND CONTINUING FOR 29 WK (STUD, Route [Inhibitor]: DERMAL, Species: MOUSE, Strain/Sex: SENCAR/FEMALE, Target Tissue: Type of Lesion: SKIN: PAPILLOMA, Dose [Carcinogen]: 25 NMOL ONCE, Promoter: CHRYSAROBIN, 491-58-7) 100%, 68%, 32%, not calculated; (Carcinogen: ETHYLNITROSOUREA, 759-73-9, Dose [Inhibitor]: 0, 600 MG/KG IN 1:10 (VOLUME: VOLUME) SUNFLOWER OIL IN DIET 5 D/WK FOR 18 MO (STUDY DURATION: 18 MO), Route [Inhibitor]: ORAL, Species: RAT, Strain/Sex: ALBINO/MALE,FEMALE, Target Tissue: Type of Lesion: BRAIN: GLIOMA OR ASTROCYTOMA, Dose [Carcinogen]: 7.5 MG/KG IN SALINE BY INTRAVENOUS INJECTION ONCE 21 D AFTER CONCEPTION) 22/54 (41%), 19/50 (38%), 7%, not calculated; (Carcinogen: ETHYLNITROSOUREA, 759-73-9, Dose [Inhibitor]: 0, 600 MG/KG IN 1:10 (VOLUME: VOLUME) SUNFLOWER OIL IN DIET 5 D/WK FOR 18 MO (STUDY DURATION: 18 MO), Route [Inhibitor]: ORAL, Species: RAT, Strain/Sex: ALBINO/MALE,FEMALE, Target Tissue: Type of Lesion: NERVOUS SYSTEM: SCHWANNOMA, Dose [Carcinogen]: 7.5 MG/KG IN SALINE BY INTRAVENOUS INJECTION ONCE 21 D AFTER CONCEPTION) 7/54 (13%), 5/50 (10%) 23%, not calculated; (Carcinogen: ETHYLNITROSOUREA, 759-73-9, Dose [Inhibitor]: 0, 600 MG/KG IN 1:10 (VOLUME: VOLUME) SUNFLOWER OIL IN DIET 5 D/WK FOR 18 MO (STUDY DURATION: 18 MO), Route [Inhibitor]: ORAL, Species: RAT, Strain/Sex: ALBINO/MALE,FEMALE, Target Tissue: Type of Lesion: SPINAL CORD: TUMOR, Dose [Carcinogen]: 7.5 MG/KG IN SALINE BY INTRAVENOUS INJECTION ONCE 21 D AFTER CONCEPTION) 3/54 (6%), 6/50 (12%), -100%, not calculated.
